Patent publication US20130261132A1, “CALCIUM-SENSING RECEPTOR-ACTIVE COMPOUNDS” (LEO PHARMA A/S, priority 2010, published 2013)

Assays:
[1] = Clearance in human liver microsomes; assay type: in vitro ADME; settings: hepatic extraction ratio; test compound 0.5 μM, microsomes 0.5 mg/mL, NADPH 1 mM, 37° C.
Description: Test compound concentration is 0.5 μM, microsome concentration is 0.5 mg/mL and NADPH concentration is 1 mM in the incubation. The described method is performed by the liquid handling system Tecan RSP and is based on a 96-well format.
Control incubations with test compound without NADPH and test compound without microsomes are conducted to investigate non-CYP mediated metabolism and stability in phosphate buffer at 37° C., respectively.
The human liver microsomal suspension in phosphate buffer is mixed with NADPH. The mixture is pre-heated (7 min) to 37° C. Test compound is added, and the mixture is incubated for 30 minutes. Incubations are run in duplicate. Samples are withdrawn at predetermined stop times and mixed with methanol containing internal standard (IS) to terminate all enzyme activity and precipitate proteins. A control without NADPH (to detect problems such as nonspecific protein binding, heat instability or non-CYP mediated metabolism) and a control without microsomes (for assessing compound stability in the absence of any active enzymes) are tested.
(§1) The percentage of organic solvent in the incubations is less than 1%. Careful inspections of reagents are performed prior to the start of any experiment to ensure all reagents are in solution.
(§2) The 96-well plates are centrifuged. Test compound depletion, using a compound specific LC/MS/MS method, is determined.
The logarithm of the peak area ratios of test compound to internal standard (IS) versus incubation time is plotted in a graph.
The rate constant (k) (min^−1) of test compound depletion is calculated from the linear part of the curve and the half-time (t1/2) in minutes can be calculated from the rate constant (Eq. 2).
Intrinsic clearance (CIint) (mL/min/mg protein) is calculated from: […]
where c is the microsomal protein concentration in mg/mL.
Conversion to apparent clearance (CIapp) (mL/min/kg) is done by Eq. 4:
CIapp=CIint×a×b/d (Eq. 4)
where a, b and d are the scaling factors for normalizing CIint to human body weight.
a: 45 (microsomal protein/liver weight (mg/g))
b: 1500 (liver weight (g))
Hepatic clearance (CIh) (mL/min/kg) based on the well-stirred model is described as followed:
CIh=(CIapp·Q)/(CIapp+Q) (Eq. 5)
where Q is the liver blood flow in mL/min/kg (20 in humans).
Dividing hepatic clearance with liver blood flow, the hepatic extraction ratio (%) can be calculated:
(§3) Apparent clearance below approximately 10 mL/min/kg human body weight (corresponding to extraction ratio of approx. 33%) is considered as low clearance (high metabolic stability). Apparent intrinsic clearance above approximately 60 mL/min/kg human body weight (corresponding to extraction ratio of approx. 75%) is considered as high clearance (low metabolic stability).

[2] = Clearance in rat hepatocytes; assay type: in vitro ADME; settings: hepatic extraction ratio; test compound 0.5 μM, 1×10^6 cells/mL, 37° C.
Description: Test compounds and 4 control compounds are tested in duplicate per run. Test compound concentration is 0.5 μM and cell concentration is 1×10^6 cells/mL in the incubation. The described method is performed by the liquid handling system Tecan RSP and is based on a 96-well format.
The liver is collected from a male Spraque-Dawley rat. One liver lobe is cut off and flushed with various buffers to loosen the cells. The cell suspension is washed and centrifuged, and the cell density is adjusted to 1.2×10^6 cells/mL with Krebs-Henseleit buffer, pH 7.4, containing 0.2% bovine serum albumin (BSA). Only cell suspensions with viability above 80% are used.
The cell suspension is pre-heated (20 min) to 37° C. Test compound is added, and the mixture is incubated for 20 minutes. Incubations are run in duplicate. Samples are withdrawn at predetermined stop times and mixed with methanol containing internal standard (IS) to terminate all enzyme activity and precipitate proteins.
as §1, §2
Data analysis is performed as described above in the section “Biological assay for analysis of clearance in human liver microsomes”, with the following modifications: Intrinsic clearance (CIint) (mL/min/10^6 cells) is calculated from: […]
where c is the cell concentration in 10^6 cells/mL.
The following scaling factors for rat are used for eq. 4:
a: 120 (cells/liver weight (10^6 cells/g))
d: 0.25 (body weight (kg))
Liver blood flow in rats (for eq. 5):
as §3, with “25” for “10”, “rat” for “human”, “to an” for “to”, “165” for “60”

Row | SMILES | Clearance (% Eh) in human liver microsomes [1] | Clearance (% Eh) in rat hepatocytes [2]
1 | COc1cc([C@@H](C)N[C@H]2CC[C@@H](c3ccc(OCC(=O)NCCNCCO)cc3)C2)ccc1F [Compound 106, 2-[4-[(1R,3S)-3-[[(1R)-1-(4-Fluoro-3-methoxy-phenyl)ethyl]-amino]-cyclopentyl]phenoxy]-N-[2-(2-hydroxyethylamino)ethyl]acetamide] | A (A: Eh < 33%) | B (B: 33% ≦ Eh ≦ 75%)
2 | COc1cc([C@@H](C)N[C@H]2CC[C@@H](c3ccc(OCC(=O)NCCNS(C)(=O)=O)cc3)C2)ccc1F [Compound 108, 2-[4-[(1R,3S)-3-[[(1R)-1-(4-Fluoro-3-methoxy-phenyl)ethyl]-amino]-cyclopentyl]phenoxy]-N-[2-(methanesulfonamido)ethyl]acetamide] | A (A: Eh < 33%) | B (B: 33% ≦ Eh ≦ 75%)
3 | C[C@@H](N[C@H]1CC[C@@H](c2ccc(OCC(=O)NC3CCNCC3)cc2)C1)c1cccc2ccccc12 [Compound 112, 2-[4-[(1R,3S)-3-[[(1R)-1-(1-Naphthyl)ethyl]amino]cyclopentyl]-phenoxy]-N-(4-piperidyl)acetamide] | A (A: Eh < 33%) | B (B: 33% ≦ Eh ≦ 75%)

Results, then the molecule that gave them:

Row | Clearance (% Eh) in human liver microsomes [1] | Clearance (% Eh) in rat hepatocytes [2] | SMILES
4 | A (A: Eh < 33%) | A (A: Eh < 33%) | COc1cc([C@@H](C)N[C@H]2CC[C@@H](c3ccc(OCC(=O)NCCS(N)(=O)=O)cc3)C2)ccc1F [Compound 104, 2-[4-[(1R,3S)-3-[[(1R)-1-(4-Fluoro-3-methoxy-phenyl)ethyl]-amino]-cyclopentyl]phenoxy]-N-(2-sulfamoylethyl)acetamide]
5 | A (A: Eh < 33%) | B (B: 33% ≦ Eh ≦ 75%) | COc1cc([C@@H](C)N[C@H]2CC[C@@H](c3ccc(OCC(=O)N4CCNCC4)cc3)C2)ccc1F [Compound 103, 2-[4-[(1R,3S)-3-[[(1R)-1-(4-Fluoro-3-methoxy-phenyl)ethyl]-amino]-cyclopentyl]phenoxy]-1-piperazin-1-yl-ethanone]
6 | A (A: Eh < 33%) | B (B: 33% ≦ Eh ≦ 75%) | COc1cc([C@@H](C)N[C@H]2CC[C@@H](c3ccc(OCC(=O)N4CCN(C(C)=O)CC4)cc3)C2)ccc1F [Compound 109, 1-(4-Acetylpiperazin-1-yl)-2-[4-[(1R,3S)-3-[[(1R)-1-(4-fluoro-3-methoxy-phenyl)ethyl]amino]cyclopentyl]phenoxy]ethanone]
7 | B (B: 33% ≦ Eh ≦ 75%) | B (B: 33% ≦ Eh ≦ 75%) | COc1cc([C@@H](C)N[C@H]2CC[C@@H](c3ccc(OCC(=O)N4CCN(S(N)(=O)=O)CC4)cc3)C2)ccc1F [Compound 110, 4-[2-[4-[(1R,3S)-3-[[(1R)-1-(4-Fluoro-3-methoxy-phenyl)-ethyl]-amino]cyclopentyl]phenoxy]acetyl]piperazine-1-sulfonamide]
